Assays:
Type in all cases: in vivo
DIO mice [1] = experiment: Conditioned place preference (CPP) assay in DIO mice; settings: for time and frequency in the food zone / time and frequency in the food-containing white side chambers: fed and fasting conditions; for cumulative duration in the dark side chambers: fed or fasting conditions
Experimental: DIO mice were treated with vehicle or ACY775 (10 mg/kg, i.p., once a day) for 3 days. On the fourth day, 1 h after the beginning of the light cycle, the mice were administered vehicle or ACY775 (10 mg/kg, i.p.) and the conditioned place preference (CPP) assay under the ad libitum feeding condition was utilized. The CPP assay was performed 6 h later under the ad libitum feeding condition (n=10 mice for both the Vehicle- and ACY775-treated groups). CPP assay under a 20-h fasting condition was also performed. DIO mice were treated with vehicle or ACY775 (10 mg/kg, i.p.) once a day and fasted for 15 h after the third injection. On the fourth day, 1 h after the beginning of the light cycle, the mice were administered vehicle or ACY775 (10 mg/kg body weight, i.p.) and the CPP assay was performed 5 h after this injection under the fasting condition (n=10 mice for both the Vehicle- and ACY775-treated groups).
Measurements were made of the total distance that the mice traveled during the CPP test, the average velocity of movement during the assay, the total time the mice spent in the dark chamber during the test; the frequency with which the mice traveled to the dark chamber during the test; the total time the mice spent in the food-paired white chamber; the frequency with which the mice traveled to the food paired white chamber; the total time the mice spent in the food-containing zone within the food-paired side chamber; and the frequency with which the mice traveled to the food-containing zone within the food-paired side chamber during the test.

DIO mice [2] = experiment: Chronic treatment of DIO mice (body weight, food intake, DEXA, glucose homeostasis); settings: for hepatic steatosis (H&E liver): 3 weeks; for food intake: 3 weeks treatment; for glucose tolerance test (GTT): after 1 week; for HOMA-IR insulin resistance / serum insulin levels / serum leptin levels: after 3 weeks; for food intake and total body fat mass (summary): high fat diet induced mice
Experimental: DIO mice were treated with ACY775 (10 mg/kg/day, i.p.) for 3 weeks. Daily body weight (g) of DIO mice treated with vehicle (n=17) or ACY775 (n=17) during 3 weeks of treatment was determined. Daily food intake (g) during 3 weeks of vehicle or ACY775 treatment was assessed. 24 hours' food intake per mouse during the first week of vehicle or ACY775 treatment was determined. Serum leptin (ng/ml) levels after 3 weeks of vehicle (n=24) or ACY775 (n=24) treatment was assessed. Lean mass (g), fat mass (g) and fat percentage (%) after 3 weeks of vehicle (n=17) or ACY775 (n=17) treatment measured by Dual-energy X-ray absorptiometry (DEXA) scan. DEXA scans were performed in two different cohorts. Glucose tolerance test (GTT) after 1 week of vehicle (n=33) or ACY775 (n=26) treated DIO mice was assessed. Area of curve (AOC) analysis for GTT was performed. Blood glucose (mg/dl) levels after 1 week of vehicle (n=17) or ACY775 (n=16) were assessed in treated DIO mice. Insulin tolerance test (ITT) was performed after 2 weeks of vehicle (n=31) or ACY775 (n=21) treatment of DIO mice. Serum insulin (ng/ml) levels were measured after 3 weeks of vehicle (n=22) or ACY775 (n=21) in treated DIO mice. A homeostatic model assessment of insulin resistance (HOMA-IR) was analyzed after 3 weeks of vehicle (n=14) or ACY775 (n=13) treated DIO mice.
Food intake was analyzed hourly until 3:00 am. […] DEXA scans were performed in two different cohorts.
DIO mice then were treated with ricolinostat (50 mg/kg, i.p.) for 3 weeks. Daily body weight (g), daily food intake (g), serum leptin (ng/ml) levels after 3 weeks of vehicle (n-8) or ricolinostat (n=8) treatment, lean mass (g); fat mass and fat percentage (%) after 3 weeks of vehicle (n=16) or ricolinostat (n=17) treatment measured by DEXA scan were determined.
Blood glucose (mg/dl) levels were measured after 1 week of vehicle (n=16) or ricolinostat (n=16) treated DIO mice. GTT after 1 week of vehicle (n=17) or ricolinostat (n=16) treatment of DIO mice was assessed. AOC analysis for GTT was performed. ITT after 2 weeks of vehicle (n=17) or ricolinostat (n=16) treated DIO mice was measured. Serum insulin (ng/ml) levels after 3 weeks of vehicle (n=8) or ricolinostat (n=8) treatment were measured in DIO mice. Liver sections from 3 weeks of vehicle or ricolinostat treated DIO mice were stained by H&E.
DIO mice then were treated with bavarostat (10 mg/kg, i.p.) for 3 weeks and daily body weight (g) of DIO mice treated with Veh (n=9) or bavarostat (n=9) measured during the three weeks of treatment period. Daily food intake (g) during 3 weeks of Veh or bavarostat treatment was also measured.
ACY1083 was administered to DIO mice as described in Example 3.

DIO mice [3] = experiment: Acute leptin co-treatment in DIO mice (body weight, food intake 15 h); settings: for body weight, leptin after pre-treatment with inhibitor: 3 days pre-treatment
Experimental: DIO mice were pretreated with ACY775 (10 mg/kg/day, i.p.) or vehicle for 3 days, which was followed by co-treatment with ACY775 (or vehicle) and leptin (1 mg/kg, i.p.) (or saline) (n=9 for each group), % change in body weight 15 h after leptin treatment, food intake (g) during the 15 h period after leptin treatment. The results in were reproduced in two independent experiments.
Diet induced obese (DIO) mice were pretreated with ACY775 (10 mg/kg/day, i.p.) or vehicle for 3 days, which was followed by co-treatment with ACY775 (or vehicle) and leptin (1 mg/kg, i.p.) (or saline) (n=9 for each group). Mice were evaluated for % change in body weight 15 h after leptin treatment, and food intake (g) during the 15 h period after leptin treatment.
DIO mice were pretreated with ricolinostat (25 mg/kg/day, i.p.) or vehicle for 3 days, which was followed by co-treatment with ricolinostat (or vehicle) and leptin (1 mg/kg, i.p.) (or saline) (n=32 for each group). Change in body weight 15 h after leptin treatment, and food intake (g) during the 15 h period after leptin treatment were determined. The results were reproduced in two independent experiments.

db/db mice = experiment: Chronic treatment of db/db mice; settings: for ITT blood glucose: 2 weeks; for fasting blood glucose: after the first week
Experimental: Daily food intake (g), Serum leptin (ng/ml), lean mass (g), fat mass (g) and fat percentage (%) were measured after 3 weeks of treatment measured by DEXA scan. GTT was determined after 1 week of treatment. AOC analysis for GTT was performed and Blood glucose (mg/dl) levels were measured after 1 week of treatment. Blood glucose (mg/dl) levels and Serum insulin (ng/ml) levels were measured after 3 weeks of treatment. ITT was assessed after 2 weeks of treatment. H&E staining of the liver sections was conducted after 3 weeks of treatment.

[4] = leptin 1 mg/kg i.p., 15 h period

Row | SMILES | time and frequency in the food zone (DIO mice [1]) | time and frequency in the food-containing white side chambers (DIO mice [1]) | cumulative duration in the dark side chambers (DIO mice [1]) | insulin tolerance test (ITT) (DIO mice [2]; DIO mice) | hepatic steatosis (H&E liver) (DIO mice [2]; DIO mice) | food intake (DIO mice [2]; DIO mice) | glucose tolerance test (GTT) (DIO mice [2]; DIO mice) | HOMA-IR insulin resistance (DIO mice [2]; DIO mice) | serum insulin levels (DIO mice [2]; DIO mice) | serum leptin levels (DIO mice [2]; DIO mice) | food intake and total body fat mass (summary) (DIO mice [2]) | body weight, leptin after pre-treatment with inhibitor (DIO mice [3]; leptin 1 mg/kg i.p., 15 h) | food intake, leptin together with inhibitor (DIO mice [3]; [4]) | food intake (db/db mice) | ITT blood glucose (db/db mice) | fasting blood glucose (db/db mice) | daily food intake on treatment (DIO mice [2]; DIO mice, ACY775 10 mg/kg, ACY738 50 mg/kg i.p.) [g] | body weight, agent alone (DIO mice [3]; 15 h, ACY775 10 mg/kg, ricolinostat 25 mg/kg, leptin 1 mg/kg i.p.) | food intake, agent alone (DIO mice [3]; 15 h period) | blood glucose lowering at end of treatment (db/db mice; 3 weeks)
1 | O=C(NO)c1cnc(NC2(c3ccccc3)CC2)nc1 [ACY738] | spent significantly shorter time and displayed lower frequency of appearance | spent similar time and frequency of appearance | no significant differences in cumulative duration | improved insulin tolerance | improved hepatic steatosis | severely reduced | significant improvement of glucose homeostasis | ameliorated insulin resistance | reduced insulin levels | significantly decreased | significant reduction of food intake and total body fat mass | significantly augmented the acute leptin-induced reduction in body weight and food intake | significantly augmented the acute leptin-induced reduction in body weight and food intake | not affected | no significant difference in blood glucose levels | not affected | – | – | – | –
2 | O=C(NO)c1cnc(NC2(c3cccc(F)c3)CCCCC2)nc1 [ACY775, 2-[[1-(3-fluorophenyl)cyclohexyl]amino]-N-hydroxy-5-pyrimidinecarboxamide] | spent significantly shorter time and displayed lower frequency of appearance | spent significantly shorter time and had lower frequency of appearance | no significant differences in cumulative duration | – | almost completely abolished hepatic steatosis | highly significant reduction | significantly improved glucose tolerance | significantly reduced the insulin resistance | significantly reduced the circulating insulin levels | significantly downregulated | significant reduction of food intake and total body fat mass | further reduction in bodyweight | further augmented the negative effect of leptin on food intake | transitionally reduced | no significant difference in blood glucose levels | lower in ACY775-treated mice than vehicle-treated mice | 0.85 ± 0.06 | significantly decreased the bodyweight | reduced the food intake | completely diminished
